What was measured:
[1] = Thermal stability test (increase in PDPA content on heating, by liquid chromatography); type: physicochemical; details: for Increase in PDPA concentration in solid: heating time 96 hr, phosphate
Procedure: With regard to 5-aminolevulinic acid phosphate, 1 g of each of the powder obtained by a conventional method (the method described in Example 1 of WO2005/100300 pamphlet) and the crystal obtained in Example 1 was weighed out and allowed to stand under each condition shown in Table 3. The amount of 2,5-pyrazinedipropionic acid (PDPA), which is an impurity generated by heating and a compound formed by dimerization of 5-aminolevulinic acid molecules, was measured by liquid chromatography. An increase in the content of PDPA in 5-aminolevulinic acid phosphate was calculated and thermal stability as a substance was evaluated.
Analytical conditions for liquid chromatography: separation column: μBondasphere C18 5μ 100 Å manufactured by Waters, eluent: a mixture of 2% aqueous acetic acid solution and methanol in a volume ratio of 90/10, flow rate: 1.0 mL/min, injection amount of sample: 50 μl, column temperature: 40° C., detector: UV detector (276 nm).

[2] = Test on moisture absorption resistance (change in mass on standing at 25° C. and 90% RH); type: physicochemical; details: for ratio of change in mass: 25° C., 90% RH, 1 g solid, phosphate
Procedure: With regard to 5-aminolevulinic acid phosphate, moisture absorption resistance was evaluated by weighing out 1 g of each of the powder obtained by a conventional method (the method described in Example 1 of WO2005/100300 pamphlet) and the crystal obtained in Example 1, allowing it to stand under conditions of 25° C. and 90% RH, subsequently measuring mass after the passage of each period of time, and calculating a ratio of change in mass.

thermal stability (in words) ([1]; as compared with the conventional powder, Table 3)	Increase in PDPA concentration in solid ([1]; heating temperature 30° C.)	Increase in PDPA concentration in solid ([1]; heating temperature 60° C.)	ratio of change in mass ([2]; time passed 1 hr)	ratio of change in mass ([2]; time passed 3 hr)	ratio of change in mass ([2]; time passed 5 hr)	ratio of change in mass ([2]; time passed 6 hr)	ratio of change in mass ([2]; time passed 7 hr)	ratio of change in mass ([2]; time passed 24 hr)	SMILES	moisture absorption resistance (in words) ([2]; as compared with the conventional powder, Table 2)
excellent in thermal stability	+0 ppm	−0 ppm	+0.05%	+0.06%	+0.09%	+0.08%	+0.09%	+0.4%	NCC(=O)CCC(=O)O.O=P(O)(O)O [Crystal, 5-aminolevulinic acid phosphate]	excellent in moisture absorption resistance
	+10 ppm	+302 ppm	+6%	+11%	+14%	+16%	+17%	+21%	NCC(=O)CCC(=O)O.O=P(O)(O)O [Powder, 5-aminolevulinic acid phosphate]	
